This is an account of results in ChEMBL document CHEMBL5252520, “Inhibition of phospho-MurNAc-pentapeptide translocase (MraY) by nucleoside natural product antibiotics, bacteriophage ϕX174 lysis protein E, and cationic antibacterial peptides” (Bioorg Med Chem, 2016).

In assay [1] the target is T1, Phospho-N-acetylmuramoyl-pentapeptide-transferase (Escherichia coli, UniProt E2QF15).
T1 sequence (E2QF15 whole entry): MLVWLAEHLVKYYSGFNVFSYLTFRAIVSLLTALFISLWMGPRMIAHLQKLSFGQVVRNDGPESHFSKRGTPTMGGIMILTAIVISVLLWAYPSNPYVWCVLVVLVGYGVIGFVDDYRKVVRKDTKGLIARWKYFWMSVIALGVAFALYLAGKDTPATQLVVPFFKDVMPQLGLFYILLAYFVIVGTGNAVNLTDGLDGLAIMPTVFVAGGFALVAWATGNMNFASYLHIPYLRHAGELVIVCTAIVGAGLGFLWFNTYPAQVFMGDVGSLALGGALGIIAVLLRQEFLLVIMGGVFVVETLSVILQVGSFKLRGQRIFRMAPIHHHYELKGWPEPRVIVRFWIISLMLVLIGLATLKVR
As to the kind of experiment: Inhibition of MraY in Escherichia coli.

Assay [2] relates to Staphylococcus aureus. As to the kind of experiment: Antibacterial activity against Staphylococcus aureus ATCC 29213 assessed as bacterial growth inhibition. It is filed as functional.
Assay [3] is described as follows: Inhibition of bacterial MraY. Details: species or system Bacteria.
The subject of assay [4] is Pseudomonas aeruginosa. The experiment in a line: Antibacterial activity against Pseudomonas aeruginosa H103 assessed as inhibition of bacterial growth. Format: functional.
Assay [5] deals with Escherichia coli. As to the kind of experiment: Antibacterial activity against Escherichia coli assessed as inhibition of bacterial growth. Format: functional.
The subject of assay [6] is Pseudomonas aeruginosa. As to the kind of experiment: Antibacterial activity against Pseudomonas aeruginosa H103 assessed as reduction in bacterial growth. Format: functional.

Usually IC50 stands for the concentration at which inhibition is half-maximal. Higher therefore signals weaker potency in that assay. As usually defined, the MIC is the lowest concentration that inhibits growth of the organism.

Converted amounts (≈) assume the structure as drawn. Residues, ends and D or L forms follow the SMILES beside them.

For the compound `CC[C@@H](C)[C@H](NC(=O)[C@H](CC(C)C)NC(=O)[C@H](CC(C)C)NC(=O)[C@H](CO)NC(=O)[C@@H]1CCCN1C(=O)[C@H](CC(C)C)NC(=O)[C@H](CC(C)C)NC(=O)[C@H](CC(C)C)NC(=O)[C@H](CO)NC(=O)[C@H](CC(C)C)NC(=O)[C@H](CC(C)C)NC(=O)[C@H](CC(C)C)NC(=O)[C@H](CC(C)C)NC(=O)[C@H](Cc1ccccc1)NC(=O)[C@H](C)NC(=O)[C@H](CC(C)C)NC(=O)[C@@H](NC(=O)[C@H](CC(=O)O)NC(=O)[C@H](Cc1c[nH]c2ccccc12)NC(=O)[C@H](CC(C)C)NC(=O)[C@@H](NC(=O)[C@H](Cc1c[nH]c2ccccc12)NC(=O)[C@H](CCCNC(=N)N)NC(=O)[C@@H](NC(=O)[C@@H](N)CCSC)C(C)C)[C@@H](C)O)[C@@H](C)O)C(=O)N[C@@H](CCSC)C(=O)N[C@@H](Cc1ccccc1)C(=O)N[C@H](C(=O)N1CCC[C@H]1C(=O)N[C@@H](CO)C(=O)N[C@H](C(=O)N[C@@H](Cc1ccccc1)C(=O)N[C@@H](CCCCN)C(=O)N[C@@H](CCCNC(=N)N)C(=O)N1CCC[C@H]1C(=O)N[C@H](C(=O)N[C@@H](CO)C(=O)O)C(C)C)[C@@H](C)O)[C@@H](C)CC`, it took 0.8 µM to reach half-maximal inhibition in assay [1] (IC50).
As for `CC(C)C[C@H](NC(=O)CNC(=O)[C@H](Cc1c[nH]c2ccccc12)NC(=O)[C@@H](N)CCCNC(=N)N)C(=O)N[C@@H](Cc1c[nH]c2ccccc12)C(=O)O` (H-RWGLW-OH), the MIC in assay [2] was 30 µg/mL (≈ 41.9 µM). This compound showed an IC50 in assay [3] of 590 µM.
Take `CC[C@H](C)[C@H](NC(=O)[C@H](Cc1c[nH]c2ccccc12)NC(=O)[C@@H](NC(=O)[C@@H](NC(=O)[C@H](CCCNC(=N)N)NC(=O)[C@H](Cc1c[nH]c2ccccc12)NC(=O)[C@H](Cc1c[nH]c2ccccc12)NC(=O)[C@@H](N)CCCNC(=N)N)[C@@H](C)CC)C(C)C)C(=O)N[C@@H](CCCCN)C(=O)N[C@@H](Cc1c[nH]c2ccccc12)C(=O)N[C@@H](Cc1c[nH]c2ccccc12)C(=O)N[C@@H](CCCNC(=N)N)C(=O)O` (H-RWWRIVWIKWWR-OH): the figures for the MIC in assay [4], in assay [5] and in assay [6] were 31 µg/mL (≈ 16.6 µM), 4 µg/mL (≈ 2.14 µM) and 31 µg/mL (≈ 16.6 µM), respectively. In assay [3], this compound gave an IC50 of 40 µM.
